Results from patent US10316017B2, “COT modulators and methods of use thereof” (Gilead Sciences, Inc., priority 2015, dated 2019).
Where two headings read alike, the source gives them in different places.

How the values were obtained:
[1] = tested on: TNFα production in LPS-stimulated human monocytes; assay: Cot Monocyte TNFα Cell Based Assay; conditions: Homo sapiens, Monocyte, TNFα in LPS-stimulated human monocytes; read-out: EC50 TNF
In short: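 Cells at 5,000/well were pretreated with compound for 1 h at 37 °C (0.5% DMSO final), then stimulated with 50 pg/ml LPS for 4 h at 37 °C. Supernatant TNFα was measured by two-antibody TR-FRET after overnight room-temperature incubation; values are percent of control between unstimulated and stimulated wells.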

[2] = molecular target: T1, human Cot catalytic domain (30-397 amino acids) (Homo sapiens, UniProt P41279); assay: High Throughput Cot Biochemical Assay (KinEASE TR-FRET); conditions: read-out: IC50 HTRF
T1 construct: Purified recombinant human Cot catalytic domain (30-397 amino acids) was purchased from Cama Biosciences; purchased Cama Biosciences (so in the source)
T1 sequence (P41279 30-397): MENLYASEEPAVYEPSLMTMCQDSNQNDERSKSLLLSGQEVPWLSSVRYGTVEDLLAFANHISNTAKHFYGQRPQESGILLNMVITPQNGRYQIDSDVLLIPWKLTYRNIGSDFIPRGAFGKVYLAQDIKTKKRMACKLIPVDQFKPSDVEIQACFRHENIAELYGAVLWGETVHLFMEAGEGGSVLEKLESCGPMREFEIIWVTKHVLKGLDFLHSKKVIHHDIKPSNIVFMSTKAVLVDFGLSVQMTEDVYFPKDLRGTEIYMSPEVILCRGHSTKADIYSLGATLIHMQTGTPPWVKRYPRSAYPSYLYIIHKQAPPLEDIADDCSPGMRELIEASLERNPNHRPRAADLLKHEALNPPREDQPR
In short: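 Reaction of 5 nM recombinant human Cot catalytic domain (aa 30-397) with 1 μM STK3 peptide (XL665-labeled) and 400 μM ATP in 10 mM MOPS pH 7.0, 10 mM MgOAc, 1 mM DTT, 0.5 mg/mL BSA, 0.1% DMSO. Phosphopeptide detected by TR-FRET with europium anti-phospho antibody.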

[3] = Cot KinEASE TR-FRET (HTRF) biochemical assay, 400 μM ATP
[4] = Cot biochemical HTRF (KinEASE TR-FRET) assay

Row | EC50 [1] | IC50 [2, 3] | IC50 [2, 4] | SMILES
1 | 726 nM | 125 nM |  | CCC(Nc1c(C#N)cnc2c(Cl)cc(N[C@@H](c3ccc(F)cc3)c3c[nH]nn3)cc12)c1ccccc1F (stereo partly drawn) [Example 397, 8-chloro-6-(((S)-(4-fluorophenyl)(1H-1,2,3-triazol-4-yl)methyl)amino)-4-((1-(2-fluorophenyl)propyl)amino) quinoline-3-carbonitrile]
2 | 1230 nM | 47 nM |  | CC(C)(C)CNc1c(C#N)cnc2c(Cl)cc(N[C@@H](c3ccc(F)cc3)c3c[nH]nn3)cc12 [Example 400, (S)-8-chloro-6-(((4-fluorophenyl)(1H-1,2,3-triazol-4-yl)methyl)amino)-4-(neopentylamino) quinoline-3-carbonitrile]
3 | 4790 nM | 758 nM |  | N#Cc1cnc2c(Cl)cc(N[C@@H](c3ccc(F)cc3)c3c[nH]nn3)cc2c1NCc1cscn1 [Example 401, (S)-8-chloro-6-(((4-fluorophenyl)(1H-1,2,3-triazol-4-yl)methyl)amino)-4-((thiazol-4-ylmethyl)amino)quinoline-3-carbonitrile]
4 | 532 nM | 15 nM |  | CC1(n2cc([C@@H](Nc3cc(Cl)c4ncc(C#N)c(Nc5cnc(F)c(F)c5)c4c3)c3ccc(F)cc3)nn2)COC1 [Example 403, (S)-8-chloro-4-((5,6-difluoropyridin-3-yl)amino)-6-(((4-fluorophenyl) (1-(3-methyloxetan-3-yl)-1H-1,2,3-triazol-4-yl)methyl)amino)quinoline-3-carbonitrile]
5 | 570 nM |  | 34 nM | N#Cc1cnc2c(Cl)cc(N[C@H](c3c[nH]nn3)c3ccccc3C(F)F)cc2c1Nc1cnc(F)c(F)c1 [Example 404, (S)-8-chloro-6-(((2-(difluoromethyl)phenyl) (1H-1,2,3-triazol-4-yl)methyl)amino)-4-((5,6-difluoropyridin-3-yl)amino)quinoline-3-carbonitrile]
6 | 776 nM |  | 23 nM | N#Cc1cnc2c(Cl)cc(N[C@@H](c3ccc(F)cc3)c3cn(CC(F)F)nn3)cc2c1Nc1cnc(F)c(F)c1 [Example 409, (S)-8-chloro-6-(((1-(2,2-difluoroethyl)-1H-1,2,3-triazol-4-yl)(4-fluorophenyl)methyl)amino)-4-((5,6-difluoropyridin-3-yl)amino)quinoline-3-carbonitrile]
7 | 2750 nM |  | 93 nM | CC1(Cn2cc([C@@H](Nc3cc(Cl)c4ncc(C#N)c(Nc5cnc(F)c(F)c5)c4c3)c3ccc(F)cc3)nn2)CCC1 [Example 413]
8 | 209 nM |  | 6 nM | CC[C@@H](Nc1c(C#N)cnc2c(Cl)cc(N[C@@H](c3ccc(F)cc3)c3cn(C)nn3)cc12)c1ccccc1 [Example 416, 8-chloro-6-(((S)-(4-fluorophenyl)(1-methyl-1H-1,2,3-triazol-4-yl)methyl)amino)-4-(((R)-1-phenylpropyl)amino) quinoline-3-carbonitrile]
9 | 5160 nM |  | 191 nM | N#Cc1cnc2c(Cl)cc(N[C@@H](c3ccc(F)cc3)c3c[nH]nn3)cc2c1NCC1CCOC1 (stereo partly drawn) [Example 420, 8-chloro-6-(((S)-(4-fluorophenyl)(1H-1,2,3-triazol-4-yl)methyl)amino)-4-(((tetrahydrofuran-3-yl)methyl)amino)quinoline-3-carbonitrile]

Further lines, the compound ahead of its results:

Row | SMILES | EC50 [1] | IC50 [2, 3] | IC50 [2, 4]
10 | CC1(CNc2c(C#N)cnc3c(Cl)cc(N[C@@H](c4ccc(F)cc4)c4c[nH]nn4)cc23)CCOCC1 [Example 398, (S)-8-chloro-6-(((4-fluorophenyl)(1H-1,2,3-triazol-4-yl)methyl)amino)-4-(((4-methyltetrahydro-2H-pyran-4-yl)methyl)amino)quinoline-3-carbonitrile] | 1050 nM | 28 nM | 
11 | CC(C)C(C)(C)CNc1c(C#N)cnc2c(Cl)cc(N[C@@H](c3ccc(F)cc3)c3c[nH]nn3)cc12 [Example 399, (S)-8-chloro-6-(((4-fluorophenyl)(1H-1,2,3-triazol-4-yl)methyl)amino)-4-((2,2,3-trimethylbutyl)amino) quinoline-3-carbonitrile] | 891 nM | 38 nM | 
12 | N#Cc1cnc2c(Cl)cc(N[C@@H](c3ccc(F)cc3)c3c[nH]nn3)cc2c1NCc1nccs1 [Example 402, (S)-8-chloro-6-(((4-fluorophenyl)(1H-1,2,3-triazol-4-yl)methyl)amino)-4-((thiazol-2-ylmethyl)amino)quinoline-3-carbonitrile] | 3650 nM | 353 nM | 
13 | N#Cc1cnc2c(Cl)cc(N[C@@H](c3ccc(F)cc3)c3cn(CC4(F)COC4)nn3)cc2c1Nc1cnc(F)c(F)c1 [Example 405, (S)-8-chloro-4-((5,6-difluoropyridin-3-yl)amino)-6-(((1-((3-fluorooxetan-3-yl)methyl)-1H-1,2,3-triazol-4-yl)(4-fluorophenyl)methyl)amino) quinoline-3-carbonitrile] | 2300 nM |  | 69 nM
14 | C[C@@H](n1cc([C@@H](Nc2cc(Cl)c3ncc(C#N)c(Nc4cnc(F)c(F)c4)c3c2)c2ccc(F)cc2)nn1)C(F)(F)F [Example 406, 8-chloro-4-((5,6-difluoropyridin-3-yl)amino)-6-(((S)-(4-fluorophenyl)(1-((R)-1,1,1-trifluoropropan-2-yl)-1H-1,2,3-triazol-4-yl)methyl)amino)quinoline-3-carbonitrile] | 4430 nM |  | 212 nM
15 | CC(C(F)F)n1cc([C@@H](Nc2cc(Cl)c3ncc(C#N)c(Nc4cnc(F)c(F)c4)c3c2)c2ccc(F)cc2)nn1 (stereo partly drawn) [Example 407, 8-chloro-6-(((1S)-(1-(1,1-difluoropropan-2-yl)-1H-1,2,3-triazol-4-yl)(4-fluorophenyl)methyl)amino)-4-((5,6-difluoropyridin-3-yl)amino)quinoline-3-carbonitrile] | 1530 nM |  | 47 nM
16 | N#Cc1cnc2c(Cl)cc(N[C@@H](c3ccc(F)cc3)c3cn(-c4ccccc4)nn3)cc2c1Nc1cnc(F)c(F)c1 [Example 408, (S)-8-chloro-4-((5,6-difluoropyridin-3-yl)amino)-6-(((4-fluorophenyl) (1-phenyl-1H-1,2,3-triazol-4-yl)methyl)amino)quinoline-3-carbonitrile] | 779 nM |  | 41 nM
17 | N#CCn1cc([C@@H](Nc2cc(Cl)c3ncc(C#N)c(Nc4cnc(F)c(F)c4)c3c2)c2ccc(F)cc2)nn1 [Example 410, (S)-8-chloro-6-(((1-(cyanomethyl)-1H-1,2,3-triazol-4-yl)(4-fluorophenyl)methyl)amino)-4-((5,6-difluoropyridin-3-yl)amino)quinoline-3-carbonitrile] | 723 nM |  | 30 nM
18 | CC(C)(C)Cn1cc([C@@H](Nc2cc(Cl)c3ncc(C#N)c(Nc4cnc(F)c(F)c4)c3c2)c2ccc(F)cc2)nn1 [Example 411, (S)-8-chloro-4-((5,6-difluoropyridin-3-yl)amino)-6-(((4-fluorophenyl)(1-neopentyl-1H-1,2,3-triazol-4-yl)methyl)amino)quinoline-3-carbonitrile] | 3410 nM |  | 111 nM
19 | CC1(Cn2cc([C@@H](Nc3cc(Cl)c4ncc(C#N)c(Nc5cnc(F)c(F)c5)c4c3)c3ccc(F)cc3)nn2)CC1 [Example 412, (S)-8-chloro-4-((5,6-difluoropyridin-3-yl)amino)-6-(((4-fluorophenyl)(1-((1-methylcyclopropyl)methyl)-1H-1,2,3-triazol-4-yl)methyl)amino)quinoline-3-carbonitrile] | 2220 nM |  | 50 nM
20 | N#Cc1cnc2c(Cl)cc(N[C@@H](c3ccc(F)cc3)c3cn(C4CC4)nn3)cc2c1Nc1cnc(F)c(Cl)c1 [Example 414, (S)-8-chloro-4-((5-chloro-6-fluoropyridin-3-yl)amino)-6-(((1-cyclopropyl-1H-1,2,3-triazol-4-yl)(4-fluorophenyl)methyl)amino) quinoline-3-carbonitrile] | 140 nM |  | 4 nM
21 | [2H][C@](Nc1cc(Cl)c2ncc(C#N)c(N[C@H](CC)c3ccccc3)c2c1)(c1ccc(F)cc1)c1c[nH]nn1 [Example 415, 8-chloro-6-(((S)-(4-fluorophenyl)(1H-1,2,3-triazol-4-yl)methyl-d)amino)-4-(((R)-1-phenylpropyl)amino)quinoline-3-carbonitrile] | 409 nM |  | 9 nM
22 | N#Cc1cnc2c(Cl)cc(N[C@@H](c3ccc(F)cc3)c3cn(C4(C(F)(F)F)CC4)nn3)cc2c1Nc1cnc(F)c(F)c1 [Example 417, (S)-8-chloro-4-((5,6-difluoropyridin-3-yl)amino)-6-(((4-fluorophenyl)(1-(1-(trifluoromethyl)cyclopropyl)-1H-1,2,3-triazol-4-yl)methyl)amino)quinoline-3-carbonitrile] | 1930 nM |  | 74 nM
23 | N#Cc1cnc2c(Cl)cc(N[C@@H](c3ccc(F)cc3)c3c[nH]nn3)cc2c1NCc1cccs1 [Example 418, (S)-8-chloro-6-(((4-fluorophenyl)(1H-1,2,3-triazol-4-yl)methyl)amino)-4-((thiophen-2-ylmethyl)amino)quinoline-3-carbonitrile] | 4170 nM |  | 361 nM
24 | N#Cc1cnc2c(Cl)cc(N[C@@H](c3ccc(F)cc3)c3c[nH]nn3)cc2c1NCc1ccsc1 [Example 419, (S)-8-chloro-6-(((4-fluorophenyl)(1H-1,2,3-triazol-4-yl)methyl)amino)-4-((thiophen-3-ylmethyl)amino)quinoline-3-carbonitrile] | 4300 nM |  | 392 nM
